# Earlier results in US20070026087A1 (priority 2003, published 2007).
# Like-named read-outs stand apart in the source and are kept apart here.
# Assays:
# [1] = system: HSV (herpes simplex virus)-1; conditions: Thurman & Gerba 1989
# [2] = system: HSV (herpes simplex virus)-2; conditions: Thurman & Gerba 1989
# Vacciniavirus = conditions: Thurman & Gerba 1989
# Adenovirus = conditions: Thurman & Gerba 1989
# HVJ = conditions: Thurman & Gerba 1989
# [3] = reported, effective only temporarily
compound,measurement,setting,value
O=[N+]([O-])[O-].[Ag+] [silver nitrate],efficacy against HSV-1,[1],effective
same,efficacy against HSV-2,[2],effective
same,efficacy against Vacciniavirus,Vacciniavirus,not effective
same,efficacy against Adenovirus,Adenovirus,not effective
same,efficacy against VSV,VSV,not effective
same,efficacy against Poliovirus,Poliovirus,not effective
same,efficacy against HVJ,HVJ,not effective
"C1CO1 [ethylene oxide gas, ethylene oxide]",efficacy as disinfectant against SARS coronavirus,SARS coronavirus; [3],effective
CC(=O)OO [peracetic acid],efficacy as disinfectant against SARS coronavirus,SARS coronavirus,effective
OCl [sodium hypochlorite],efficacy as disinfectant against SARS coronavirus,SARS coronavirus; [3],effective
O=CCCCC=O [glutaraldehyde],efficacy as disinfectant against SARS coronavirus,SARS coronavirus; [3],effective
CCO [ethanol],efficacy as disinfectant against SARS coronavirus,SARS coronavirus; [3],effective
